In ChEMBL document CHEMBL5537177, “Discovery of Potent Antimalarial Type II Kinase Inhibitors with Selectivity over Human Kinases” (J Med Chem, 2024):

Assays:
Plasmodium falciparum [1] = experiment: Antimalarial activity against Plasmodium falciparum harboring AcAS A597V mutation assessed as reduction in parasitemia incubated for 72 hrs by SYBR green I dye based analysis; type: functional, organism-based
Plasmodium falciparum [2] = experiment: Antimalarial activity against Plasmodium falciparum harboring CARL I1139K mutation assessed as reduction in parasitemia incubated for 72 hrs by SYBR green I dye based analysis; type: functional, organism-based
Plasmodium falciparum [3] = experiment: Antimalarial activity against Plasmodium falciparum harboring PI4K S1320L mutation assessed as reduction in parasitemia incubated for 72 hrs by SYBR green I dye based analysis; type: functional, organism-based
Plasmodium falciparum [4] = experiment: microbe, parasite or virus in culture; settings: Dd2, 72 h
Description: Antimalarial activity against wild-type Plasmodium falciparum Dd2 assessed as reduction in parasitemia incubated for 72 hrs by SYBR green I dye based analysis

MCF7 = experiment: Cytotoxicity against human MCF7 cells assessed as reduction in cell viability incubated for 48 hrs by MTS assay; type: toxicity, cell-based; settings: mcf7
Plasmodium falciparum [5] = experiment: Resistance index, ratio of EC50 for multidrug-resistant Plasmodium falciparum Dd2 at ring stage infected in A+ erythrocytes to EC50 for drug-sensitive Plasmodium falciparum 3D7 at ring stage infected in A+ erythrocytes; type: organism-based; settings: human
[6] = Selectivity index, ratio of EC50 for human MCF7 cells to EC50 for multidrug-resistant Plasmodium falciparum Dd2 at ring stage infected in A+ erythrocytes; type: toxicity, cell-based; settings: read-out: Ratio EC50
[7] = Metabolic stability in mouse liver microsomes assessed as half life; type: ADME, Liver cells
HepG2 = experiment: Cytotoxicity against human HepG2 cells assessed as reduction in cell viability incubated for 48 hrs by MTS assay; type: toxicity, cell-based; settings: hepg2
Plasmodium falciparum [8] = experiment: Antiplasmodial activity against multidrug-resistant Plasmodium falciparum Dd2 at ring stage infected in A+ erythrocytes assessed as parasite growth reduction incubated for 72 hrs by SYBR Green I dye based analysis; type: functional, organism-based; settings: Dd2, Erythrocyte
[9] = Metabolic stability in mouse liver microsomes assessed as intrinsic clearance; type: ADME, Liver cells
Plasmodium falciparum [10] = experiment: Antiplasmodial activity against drug-sensitive Plasmodium falciparum 3D7 at ring stage infected in A+ erythrocytes assessed as parasite growth reduction incubated for 72 hrs by SYBR Green I dye based analysis; type: functional, organism-based; settings: 3D7, Erythrocyte
[11] = Selectivity index, ratio of EC50 for human HepG2 cells to EC50 for multidrug-resistant Plasmodium falciparum Dd2 at ring stage infected in A+ erythrocytes; type: toxicity, cell-based; settings: read-out: Ratio EC50

| SMILES | EC50 (Plasmodium falciparum [1]) | EC50 (Plasmodium falciparum [2]) | EC50 (Plasmodium falciparum [3]) | EC50 (Plasmodium falciparum [4]) | EC50 (MCF7) | Ratio EC50 (Plasmodium falciparum [5]) | selectivity ratio [6] | t1/2 [7] | EC50 (HepG2) | EC50 (Plasmodium falciparum [8]) | intrinsic clearance [9] | EC50 (Plasmodium falciparum [10]) | selectivity ratio [11] |
| --- | --- | --- | --- | --- | --- | --- | --- | --- | --- | --- | --- | --- | --- |
| CNC(=O)c1ccc(-c2cnc3cnc(C(=O)N(C)c4ccc(Cl)cc4)cn23)cc1 | 4.2 nM | 9.8 nM | 67.6 nM | 6 nM |  |  |  |  |  |  |  |  |  |
| CCN1CCN(Cc2ccc(NC(=O)c3cc(Cl)cc(NC(=O)c4cncc(-c5ccco5)c4)c3)cc2C(F)(F)F)CC1 |  |  |  |  | 6490 nM | 0.9 | 127 | 58.1 min | 5410 nM | 51 nM | 12 µL/min/mg | 58 nM | 106 |
| O=C(NNC(=O)c1csnn1)c1ccc(Cl)cc1 | > 50000 nM | 174 nM | 106 nM | 182 nM |  |  |  |  |  |  |  |  |  |
| CCN1CCN(Cc2ccc(NC(=O)c3cc(Cl)cc(NC(=O)N4CCN(C)CC4)c3)cc2C(F)(F)F)CC1 |  |  |  |  | 18800 nM | 0.6 | 15 |  | 14000 nM | 1230 nM |  | 2120 nM | 11 |
| O=C(Nc1cccc(C(F)(F)F)c1)c1cc(Cl)cc(NC(=O)c2cncc(-c3cccs3)c2)c1 |  |  |  |  | > 20000 nM | 2.1 | > 18 |  | > 20000 nM | 1110 nM |  | 541 nM | > 18 |
| CCN1CCN(Cc2ccc(NC(=O)c3cc(NC(=O)c4cncc(-c5cccs5)c4)cc(C(F)(F)F)c3)cc2C(F)(F)F)CC1 |  |  |  |  | 3540 nM | 0.9 | 114 | 41.4 min | 2850 nM | 31 nM | 17 µL/min/mg | 35 nM | 92 |
| CCN1CCN(Cc2ccc(NC(=O)c3cc(Cl)cc(NC(=O)c4cccnc4)c3)cc2C(F)(F)F)CC1 |  |  |  |  | 11000 nM | 1.2 | 75 | 15.1 min | 10400 nM | 147 nM | 46 µL/min/mg | 127 nM | 71 |
| CCN1CCN(Cc2ccc(NC(=O)c3ccc(F)c(NC(=O)c4cncc(-c5cccs5)c4)c3)cc2C(F)(F)F)CC1 |  |  |  |  | 5100 nM | 1.7 | 3.9 |  | 3170 nM | 1320 nM |  | 763 nM | 2.4 |
| CCN1CCN(Cc2ccc(NC(=O)c3cc(Cl)cc(NC(=O)c4cncc(C#N)c4)c3)cc2C(F)(F)F)CC1 |  |  |  |  | 7580 nM | 1 | 40 |  | 11000 nM | 191 nM |  | 186 nM | 58 |
| CCN1CCN(Cc2ccc(NC(=O)c3ccc(OC)c(NC(=O)c4cncc(-c5cccs5)c4)c3)cc2C(F)(F)F)CC1 |  |  |  |  | 5060 nM | 1.9 | 3.3 |  | 3240 nM | 1540 nM |  | 821 nM | 2.1 |
| CCN1CCN(Cc2ccc(NC(=O)c3cc(Cl)cc(NC(=O)c4cccc(-c5cccs5)c4)c3)cc2C(F)(F)F)CC1 |  |  |  |  | 8360 nM | 1.3 | 33 |  | 5460 nM | 253 nM |  | 196 nM | 22 |
| CCN1CCN(Cc2ccc(NC(=O)c3cc(NC(=O)c4cncc(-c5cccs5)c4)c(C)cc3F)cc2C(F)(F)F)CC1 |  |  |  |  | 6910 nM | 1.1 | 4.4 |  | 4050 nM | 1580 nM |  | 1460 nM | 2.6 |
| CCN1CCN(Cc2ccc(NC(=O)c3cc(Cl)cc(C(=O)Nc4cncc(-c5cccs5)c4)c3)cc2C(F)(F)F)CC1 |  |  |  |  | 5360 nM | 1.3 | 49 |  | 4240 nM | 109 nM |  | 82 nM | 39 |
| CCN1CCN(Cc2ccc(NC(=O)c3cc(Cl)cc(NC(=O)c4ccccc4)c3)cc2C(F)(F)F)CC1 |  |  |  |  | 6070 nM | 1.4 | 12 |  | 7240 nM | 493 nM |  | 361 nM | 15 |
| O=C(Nc1ccnc(N2CCOCC2)c1)c1cc(Cl)cc(NC(=O)c2cncc(-c3cccs3)c2)c1 |  |  |  |  | 14700 nM | 1.1 | 20 |  | > 20000 nM | 739 nM |  | 700 nM | > 27 |
